One molecule from patent publication US8809344B2, “Compounds, compositions, and methods for control of hepatitis C viral infections” (priority 2008, dated 2014) can be followed below.

Data set [1] has as its system stable genotype 1b (Con1 strain) subgenomic replicon. In words: EC50 in Clone VI cells, quantitative RT-PCR of HCV RNA. The settings on record: Hepatitis C virus, 72 hour. The class given is cell-based. Here is the method:
Inhibition of HCV replication by compound AP0080978 (enantiomer 2 from Example 1) was also assayed by exposing cells harboring either HCV genotype 1a, HCV genotype 1b, HCV genotype 2a replicons. […] Final DMSO percentage was 1% in a total volume of 1 ml. After a 72 hour treatment period, total RNA was extracted, quantified via RiboGreen™ assay (Invitrogen-Molecular Probes, Eugene, Oreg., USA), and equivalent amounts of RNA were subjected to quantitative RT-PCR to quantify HCV RNA levels. […] For each replicate culture, HCV RNA levels were measured by blot hybridization and normalized to β-actin RNA levels. Cytotoxicity was measured using an established neutral red dye uptake assay (Korba and Gerin (1992) Antiviral Res 19:55; Okuse et al (2005) Antiviral Res 65: 23). […] Activity and toxicity against genotype 2a was evaluated in Huh7 cells harboring a stable hRluc-containing subgenomic genotype 2a replicon containing sequence from both J6 and JFH1 strains. […]
Additional compounds of formula (I) shown in FIG. 1 were also shown to inhibit HCV RNA replication. The effects of various compounds of formula (I) on HCV RNA replicon levels were determined by measuring HCV replicon RNA levels in cells treated with various concentrations of the compounds. […] Total RNA was extracted 72 hours later, and HCV and GAPDH RNA levels were quantified via quantitative RT-PCR. […]

Data set [2] is described as follows: Neutral red dye uptake cytotoxicity assay. The class given is cell-based. The settings on record: human, Experiment 3. As to the method: Inhibition of HCV replication by compound AP0080978 (enantiomer 2 from Example 1) was also assayed by exposing cells harboring either HCV genotype 1a, HCV genotype 1b, HCV genotype 2a replicons. […] Final DMSO percentage was 1% in a total volume of 1 ml. After a 72 hour treatment period, total RNA was extracted, quantified via RiboGreen™ assay (Invitrogen-Molecular Probes, Eugene, Oreg., USA), and equivalent amounts of RNA were subjected to quantitative RT-PCR to quantify HCV RNA levels. Activity against genotype 1b was re-confirmed using Clone II cells (U.S. Pat. No. 7,049,428) that contain a stable subgenomic replicon (Con1 strain) with a Arg 1164 Gly adaptive mutation that is distinct from the Ser 1179 Ile adaptive mutation present in Clone VI cells. In this assay, cells were seeded into 96-well plates and treated in quadruplicate with varying concentration of compounds for 72 hours. For each replicate culture, HCV RNA levels were measured by blot hybridization and normalized to β-actin RNA levels. Cytotoxicity was measured using an established neutral red dye uptake assay (Korba and Gerin (1992) Antiviral Res 19:55; Okuse et al (2005) Antiviral Res 65: 23). […] Activity and toxicity against genotype 2a was evaluated in Huh7 cells harboring a stable hRluc-containing subgenomic genotype 2a replicon containing sequence from both J6 and JFH1 strains. […]

The subject of data set [3] is stable genotype 1b (Con1 strain) subgenomic replicon in control Clone A cells. The data set can be described thus: Control Clone A cells, HCV RNA by quantitative RT-PCR. It counts as cell-based. The conditions noted are these: Hepatitis C virus, 72 h. As to the method: In an effort to gain insight into the target of 80978, Clone A cells were selected for resistance to 80978. Clone A cells are a human hepatoma cell line that contains a stable genotype 1b (Con1 strain) subgenomic replicon. Cells were cultured for 12 days in medium containing 10 μM 80978 and 1 mg/ml Geneticin™ (Invitrogen). Medium was changed every 3-4 days to replenish compound, and cells were split as needed to maintain subconfluent cultures. After 12 days of growth in the presence of 10 μM 80978, the concentration of 80978 was increased to 20 μM and cultured for an additional 19 days. Control Clone A cells were grown in parallel in the presence of diluent only. After this culture period, cells were evaluated for response to 80978.
Control cells and cells that had been cultured in the presence of 80978 were treated in triplicate with 3-fold serial dilutions of compound for 72 hours. At the end of this incubation period, total RNA was extracted, and HCV RNA levels were measured by quantitative RT-PCR using primers that recognize the 3′NTR.

The subject of data set [4] is genotype 2a replicon encoding genotype 1b NS4B amino acids 53 to 218. The data set can be described thus: Chimeric genotype 1b/2a replicon (NS4B aa 53 to 218 from 1b) in Huh7.5 cells. It counts as cell-based, hepatitis C virus. From the text: That NS4B is the target of 80978 was confirmed by a complementary approach. The differential response to 80978 by HCV genotype 1b and 2a replicons allowed the use of chimeric replicons to narrow down the region of the HCV genotype 1b NS4B coding region that confers sensitivity to 80978. The nucleotide sequence of the wild type HCV genotype 2a NS4B is provided as SEQ ID NO: 7 and the wild type HCV genotype 2a NS4B protein sequence is provided as SEQ ID NO:8. Using a plasmid containing an 80978-resistant stable HCV genotype 2a subgenomic reporter replicon cDNA, six replacement, or chimeric constructs were made, where the regions encoding the following amino acids of NS4B were replaced with the regions encoding the corresponding amino acids of NS4B from HCV genotype 1b: (i) 7-254, (ii) 7-52, (iii) 53-254, (iv) 219-254, (v) 7-52 and 219-254, and (vi) 53 to 218. The full-length NS4B protein is 261 amino acids in length and is provided as SEQ ID NO:2. Thus, if any of these segments of NS4B from genotype 1b are sufficient to confer 80978-sensitivity to a genotype 2a HCV replicon, it will render the chimeric genotype 1b/genotype 2a replicon sensitive to the compound.
Response to 80978 was measured initially in unselected cells. […] All of the chimeric and wild type control constructs were responsive to Cyclosporin A (CsA).

Structures are written as SMILES. Like-named read-outs stand apart in the source and are kept apart here.

On to `O=C(NCc1cccs1)c1nn2c(c1Cl)N[C@H](c1ccco1)C[C@@H]2C(F)(F)F` (single isomer, unassigned) [Compound 80978], for which the EC50 is 900 nM in data set [1] (FIG. 2, compounds other than 80978 as racemates, read-out: EC50 for inhibition of HCV RNA replication); 900 to 1750 nM in data set [1] (Experiment 1, genotype 1b, RT-PCR, read-out: EC50); 1760 nM in data set [3]; less than 2500 nM in data set [4] (Hepatitis C virus, Huh7.5). Further, the 50% cytotoxic concentration (CC50) at 72 h in data set [2] is more than 20000 nM. Moreover, in data set [4] (Geneticin-selected stable replicon-containing cells, amino acids 53-218), the “response to 80978” value was “responsive”.
